Several values for one entry are separate records, joined by “and”; a condition that tells them apart may be missing. Equal values may be shown once.

Common to all, as to format: cell-based
The nature of data set [1]: Cytotoxicity in HBV persistently infected human HEP G2 cells, neutral red dye uptake (Table 5). Conditions: human, hep-g2 cells, Trial 2, read-out: % of Control Neutral Red Dye Uptake. The source says:
(§1) Initially, evaluations of the alkyl lipids were done to determine whether the compounds were cytotoxic to the cells at concentrations having anti-HBV activity. The assay methodology is szt forth in Korba and Germ, Antiviral Res., 19, 55-70 (1992), incorporated by reference herein. Briefly, these cell cytotoxicity evaluations were done in 96-well plates seeded with HEP-G2 cell monolayers. The hepatoblastoma cell line HEP-G2 transfected with a plasmid carrying the gene that confers resistance to […] and four 5'-3' tandem copies of the Hepatitis B virus genome was obtained from Dr. George Acs. Proc. Natl. Acad. Sci. USA, 84, 1005-1009 (1987). Serial concentrations of compound were added to the RPMI-1640 growth medium and the growth medium was added to the 96-well plates containing the cell monolayers. The cells were incubated for a total of nine days at 37° C. The compound-containing medium was periodically replaced. Each compound was tested at four serial concentrations in triplicate. After nine days of treatment and incubation, 0.01% neutral red dye (Sigma, Inc.) was added to the overlay medium. Cell cytotoxicity was quantitated by measuring the average A510. Values in Table 1 represent the percentage of average A510 values (±standard deviation) relative to nine non-treated control wells.
An analysis was periormed to determine the cytotoxicity of the following compounds in human HEP-G2 cells persistently infected with HBV: CP-51, CP-49, CP-9, CP-126, lyso PAF and CP-7. 2'-3'-Dideoxycytidine (ddC) was used as a control in this cytotoxicity analysis. The toxicity analyses were performed in 96-well flat bottomed tissue culture plates following the same procedure set forth in Example 6 above. Each compound was tested at four concentrations, each in triplicate cultures. Uptake of neutral red dye was used to determine the relative level of toxicity. The absorbance of internalized dye at […] (A510) was used for the quantitative analysis.
Values are presented as a percentage of the average A510 values (± standard deviations) in ninz separate cultures of untreated cells maintained on the same 96-well plate as the test compounds. The percentage of dye uptake in the nine control cultures was 100±1.

Data set [2] concerns Hepatitis B virus. Briefly: Effect of alkyl lipids on HBV replication in HBV persistently infected human HEP G2 cells (Table 6). The following applies: for Intracellular HBV DNA, Mono (episomal 3.2-3.8 Kb HBV genomes) / Intracellular HBV DNA, RI (replication intermediates): nine days. As for the experimental part:
Cells were treated with a particular compound for nine days at 37° C. Analysis of intracellular HEIV DNA was done 24 hours following the ninth day of treatment. […] The levels of integrated HBV DNA in each cellular DNA preparation were used to calculate the levels of episomal 3.2-3.8 Kb HBV genomes (Mono) and HBV DNA replication intermediates (RI). A zero value indicates an undetectable level of HBV virion DNA. The sensitivity cut-off was 0.1 pg DNA/ml of culture medium.

The test system of data set [3] is Hepatitis B virus. Kind of data set: Effect on synthesis of antigen markers in persistently infected human HEP G2 cell cultures (Table 7). Conditions: nine days; for activity at 10 µM: Hepatitis B virus, HepG2, 216 h. As for the experimental part:
Cells were treated with compound for nine days at 37° C. The overlay medium was harvested to measure levels of HBsAg, HBeAg and virion DNA. HBsAg and HBeAg were assayed by EIA (Abbott Laboratories). Virion DNA levels were measured as described in section B above.

A short description of data set [4]: Cytotoxicity of alkyl lipids, neutral red dye uptake (Table 1). The following applies: human, hep-g2 cells.
Description: as §1

The subject of data set [5] is Hepatitis B virus. Kind of data set: Anti-hepatitis B virus activity in HEP-G2 cells persistently infected with HBV (Table 2). The following applies: 10 μM; for activity against HBV-induced virion DNA and HBeAg syntheses: in words; for activity at 10 µM: Hepatitis B virus, HepG2, 216 h, 9 days treatment. The protocol:
HEP-G2 cells persistently infected with HBV were treated daily with fresh D-MEM containing 20% FBS and 10 μM compound. After 9 days incubation and treatment, the overlay medium was harvested to assay the quantity of Hepatitis B virus s antigen (HBsAg) and HBeAg by EIA (Abbott Laboratories). The overlay medium was diluted to levels of antigen in the linear range of the assay. Standard curves using dilutions of positive HBsAg and HBeAg controls were included in each assay. Virion DNA was assayed using the method set forth in Korba and Gerin, Antiviral Res., 19, 5,5-70 (1992), incorporated by reference herein. HBV DNA was extracted from the overlay medium containing virus particles and analyzed by a slot-blot hybridization technique using ^32 P-labelled 3.2 Kb Eco R1 HBV DNA fragment by comparisons to HBV standards present on nitrocellulose filters using an AMBIS beta scanner. EC90 values (90% effective concentration, i.e., drug concentration which induces a 90% decrease in the levels of HBV DNA replication intermediates in treated versus control cells) were calculated by linear regression analysis. The relative levels of HBsAg, HBeAg and virion DNA were calulated as a percentage of the average levels obtained from the untreated controls.

Where [6] appears, read: read-out: Relative Level of HBeAg.
Setting [7] is: read-out: Relative Level of HBsAg.
[8] abbreviates: read-out: Relative Level of Virion DNA.

As for `CCCCCCCCCCCCCCCCCCOCC(O)COP(=O)([O-])OCC[N+](C)(C)C` (racemic) [lyso PAF, rac-3-octadecyloxy-2-hydroxy-1-propyl phosphocholine], the viability at 216 h, 3 µM in data set [1] (3 μM) stood at 98 ± 2%. In addition, the viability at 216 h, 10 µM in data set [1] (10 μM) is 99 ± 1%. Besides, the viability at 216 h, 30 µM in data set [1] (30 μM) was 98 ± 2%. The viability at 216 h, 100 µM in data set [1] (100 μM) was 40 ± 6%. For the same compound, the “HBV Virion DNA” value in data set [2] (0.1 μM, Day 0) is 62 pg/ml Culture Medium and 60 pg/ml Culture Medium and 81 pg/ml Culture Medium and 57 pg/ml Culture Medium; in data set [2] (0.1 μM, Day 3), 77 pg/ml Culture Medium and 81 pg/ml Culture Medium and 70 pg/ml Culture Medium and 69 pg/ml Culture Medium; in data set [2] (0.1 μM, Day 6), 80 pg/ml Culture Medium and 79 pg/ml Culture Medium and 64 pg/ml Culture Medium and 88 pg/ml Culture Medium; in data set [2] (0.1 μM, Day 9), 84 pg/ml Culture Medium and 96 pg/ml Culture Medium and 67 pg/ml Culture Medium and 92 pg/ml Culture Medium; in data set [2] (1 μM, Day 0), 52 pg/ml Culture Medium and 51 pg/ml Culture Medium and 63 pg/ml Culture Medium and 65 pg/ml Culture Medium; in data set [2] (1 μM, Day 3), 69 pg/ml Culture Medium and 61 pg/ml Culture Medium and 53 pg/ml Culture Medium. In addition, the “HBV Virion DNA” value in data set [2] (1 μM, Day 6) is 72 pg/ml Culture Medium and 79 pg/ml Culture Medium and 81 pg/ml Culture Medium; in data set [2] (1 μM, Day 9), 74 pg/ml Culture Medium and 83 pg/ml Culture Medium and 59 pg/ml Culture Medium and 88 pg/ml Culture Medium; in data set [2] (10 μM, Day 0) it was 52 pg/ml Culture Medium and 62 pg/ml Culture Medium and 60 pg/ml Culture Medium and 68 pg/ml Culture Medium; in data set [2] (10 μM, Day 3), 65 pg/ml Culture Medium and 71 pg/ml Culture Medium and 51 pg/ml Culture Medium and 50 pg/ml Culture Medium; in data set [2] (10 μM, Day 6) it was 36 pg/ml Culture Medium and 34 pg/ml Culture Medium and 30 pg/ml Culture Medium and 32 pg/ml Culture Medium; in data set [2] (10 μM, Day 9, 0 = undetectable, cut-off 0.1 pg DNA/ml), 14 pg/ml Culture Medium and 18 pg/ml Culture Medium and 11 pg/ml Culture Medium and 13 pg/ml Culture Medium. Further, the “Intracellular HBV DNA, Mono (episomal 3.2-3.8 Kb HBV genomes)” value in data set [2] (0.1 μM) is 2.5 pg/μg Cell DNA and 2.1 pg/μg Cell DNA and 2.0 pg/μg Cell DNA; in data set [2] (1 μM), 2.6 pg/μg Cell DNA and 2.9 pg/μg Cell DNA and 2.4 pg/μg Cell DNA; in data set [2] (10 μM), 2.0 pg/μg Cell DNA and 2.4 pg/μg Cell DNA and 2.6 pg/μg Cell DNA and 2.8 pg/μg Cell DNA. The “Intracellular HBV DNA, RI (replication intermediates)” value in data set [2] (0.1 μM) was 84 pg/μg Cell DNA and 96 pg/μg Cell DNA and 67 pg/μg Cell DNA and 71 pg/μg Cell DNA; in data set [2] (1 μM), 74 pg/μg Cell DNA and 83 pg/μg Cell DNA and 59 pg/μg Cell DNA and 84 pg/μg Cell DNA; in data set [2] (10 μM), 15 pg/μg Cell DNA and 22 pg/μg Cell DNA and 18 pg/μg Cell DNA and 21 pg/μg Cell DNA. Also, the “Relative Level of HBeAg” value in data set [3] (10 μM, 12960 min) is given as 50 % of Untreated Control. In addition, the “Relative Level of HBsAg” value in data set [3] (10 μM, 12960 min) is reported as 80 % of Untreated Control. Further, the “Relative Level of Virion DNA” value in data set [3] (10 μM, 12960 min) is given as 15 % of Untreated Control. Also, the activity at 10 µM amounted to 45% in data set [3] (read-out: Relative Level of HBeAg, 10 μM); 78% in data set [3] (read-out: Relative Level of HBsAg, 10 μM); 13% in data set [3] (read-out: Relative Level of Virion DNA, 10 μM).
As for `CCCCCCCCCCCCCCCC(=O)NCC(COP(=O)([O-])OCC[N+](C)(C)C)OC` (centres unmarked) [CP-48], in data set [4], the cytotoxicity at 216 h, 30 µM stood at 39%; the viability at 216 h, 3 µM is 102 ± 1%; the viability at 216 h, 10 µM worked out at 97 ± 1%; the viability at 216 h, 30 µM was found to be 61 ± 2%. Further, the viability at 216 h, 100 µM in data set [4] was 24 ± 1%. In addition, the “activity against HBV-induced virion DNA and HBeAg syntheses” value in data set [5] is “no significant activity”. For the same compound, in data set [5] (setting [6]), the activity at 10 µM is 88%. The activity at 10 µM in data set [5] (setting [7]) was 73%. Further, the activity at 10 µM in data set [5] (setting [8]) is 96%.
On to `CCCCCCCCCCCCCCCCCC(=O)NCC(COP(=O)([O-])OCC[N+](C)(C)C)OC` (centres unmarked) [CP-50], for which, in data set [4], the cytotoxicity at 216 h, 30 µM stood at 0%; the cytotoxicity at 216 h, 100 µM came out at 5%; the viability at 216 h, 3 µM came out at 97 ± 2%; the viability at 216 h, 10 µM is 99 ± 2%. Moreover, in data set [4], the viability at 216 h, 30 µM came to 100 ± 3% and the viability at 216 h, 100 µM was 95 ± 2%. Moreover, the “activity against HBV-induced virion DNA and HBeAg syntheses” value in data set [5] is given as “no significant activity”. For the same compound, the activity at 10 µM in data set [5] (setting [6]) is 93%. In addition, in data set [5] (setting [7]), the activity at 10 µM was 104%. Also, the activity at 10 µM in data set [5] (setting [8]) is 88%.

For the origin of these results see patent US6030960A, “Method of treating hepatitis virus infections” (priority 1998, dated 2000).
